Among the data in patent publication US11472811B2, “Pyrazolotriazolopyrimidine derivatives as A2A receptor antagonist” (BEIGENE, LTD., priority 2018, dated 2022) are IC50 values, retold here.

Chain of human A2A receptor (A2AR) (P29274 whole entry): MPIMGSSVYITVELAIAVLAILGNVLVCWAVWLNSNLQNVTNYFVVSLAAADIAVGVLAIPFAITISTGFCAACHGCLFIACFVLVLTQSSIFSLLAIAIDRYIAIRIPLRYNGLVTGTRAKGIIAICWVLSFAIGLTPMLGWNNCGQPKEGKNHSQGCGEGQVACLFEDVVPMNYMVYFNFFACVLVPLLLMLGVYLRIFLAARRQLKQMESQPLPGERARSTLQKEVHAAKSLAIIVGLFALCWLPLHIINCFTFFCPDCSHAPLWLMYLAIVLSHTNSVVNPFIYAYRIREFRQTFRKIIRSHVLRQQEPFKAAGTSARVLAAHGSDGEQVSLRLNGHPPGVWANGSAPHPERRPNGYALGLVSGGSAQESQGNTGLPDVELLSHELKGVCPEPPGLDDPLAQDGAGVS

The assay concerns the target human A2A receptor (A2AR) (Homo sapiens (Human), UniProt P29274). As to the kind of experiment: Luciferase reporter assay (HEK293-A2AR-luc2p/CRE/Hygro cells). As to conditions: 3 nM CGS21680, 5 h incubation. It counts as cell-based. The method, boiled down:
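HEK293 cells stably expressing human A2AR and a CRE-luc2P reporter were seeded in 1% FBS with 1 U/mL adenosine deaminase. After 18 h they were stimulated 5 h with 3 nM CGS21680 plus compound (0.1–10000 nM), then luciferase luminescence was read. IC50 was taken from inhibition curves, with CGS21680 alone set as 100%.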
Usually IC50 stands for the concentration that inhibits the measured activity by half. Read a high IC50 as weaker potency in that assay. For `CC(C(=O)NC1CC1)(c1ccccc1)n1ncc2c1nc(N)n1nc(-c3ccco3)nc21` (centres unmarked) [Example 40, 2-(5-amino-2-(furan-2-yl)-7H-pyrazolo[4,3-e][1,2,4]triazolo[1,5-c]pyrimidin-7-yl)-N-cyclopropyl-2-phenylpropanamide], the IC50 amounted to 14.9 nM.

Turning to `Nc1nc2c(cnn2C(C(=O)NCc2ccc(C(F)(F)F)cc2)c2ccccc2)c2nc(-c3ccco3)nn12` (centres unmarked) [Example 29, 2-(5-amino-2-(furan-2-yl)-7H-pyrazolo[4,3-e][1,2,4]triazolo[1,5-c]pyrimidin-7-yl)-2-phenyl-N-(4-(trifluoromethyl)benzyl)acetamide], half-maximal inhibition (IC50) was put at 1.3 nM.

`CNC(=O)C(c1ccccc1)n1ncc2c1nc(N)n1nc(-c3ccco3)nc21` (centres unmarked) [Example 4, 2-(5-amino-2-(furan-2-yl)-7H-pyrazolo[4,3-e][1,2,4]-triazolo[1,5-c]pyrimidin-7-yl)-N-methyl-2-phenylacetamide] yielded a concentration for half-maximal inhibition (IC50) of 3.8 nM.

The compound `CC(C(=O)N[C@H]1CCCC[C@@H]1O)(c1ccccc1)n1ncc2c1nc(N)n1nc(-c3ccco3)nc21` (stereo partly drawn) [Example 57, 2-(5-amino-2-(furan-2-yl)-7H-pyrazolo[4,3-e][1,2,4]triazolo[1,5-c]pyrimidin-7-yl)-N-((1S,2S)-2-hydroxycyclohexyl)-2-phenylpropanamide] gave an IC50 of 29 nM.

Consider `C[C@H](NC(=O)C(c1ccccc1)n1ncc2c1nc(N)n1nc(-c3ccco3)nc21)c1ccccc1` (stereo partly drawn) [Example 9, 2-(5-amino-2-(furan-2-yl)-7H-pyrazolo[4,3-e][1,2,4]triazolo[1,5-c]pyrimidin-7-yl)-2-phenyl-N—((S)-1-phenylethy)acetamide], for which the IC50 was 31.9 nM.

In turn, `CC(C(=O)Nc1ccncc1)(c1ccccc1)n1ncc2c1nc(N)n1nc(-c3ccco3)nc21` (centres unmarked) [Example 65, 2-(5-amino-2-(furan-2-yl)-7H-pyrazolo[4,3-e][1,2,4]triazolo[1,5-c]pyrimidin-7-yl)-2-phenyl-N-(pyridin-4-yl)propanamide] displayed an IC50 of 25.5 nM.

With `CC(C(=O)NCc1cccc(F)n1)(c1ccccc1)n1ncc2c1nc(N)n1nc(-c3ccco3)nc21` (centres unmarked) [Example 116, 2-(5-amino-2-(furan-2-yl)-7H-pyrazolo[4,3-e][1,2,4]triazolo[1,5-c]pyrimidin-7-yl)-N-((6-fluoropyridin-2-yl)methyl)-2-phenylpropanamide], the IC50 is 2.2 nM. This IC50 lies about 12-fold lower than the previous one.

For the compound `COc1cccc(C(C)(C(=O)NCC2(O)COC2)n2ncc3c2nc(N)n2nc(-c4ccco4)nc32)c1` (centres unmarked) [Example 137, 2-(5-amino-2-(furan-2-yl)-7H-pyrazolo[4,3-e][1,2,4]triazolo[1,5-c]pyrimidin-7-yl)-N-((3-hydroxyoxetan-3-yl)methyl)-2-(3-methoxyphenyl)propanamide], the half-maximal inhibitory concentration (IC50) is 13 nM.

`C[C@](C(=O)NCCC1CCC(O)CC1)(c1ccccc1)n1ncc2c1nc(N)n1nc(-c3ccco3)nc21` (stereo partly drawn) [Example 149B, (R)-2-(5-amino-2-(furan-2-yl)-7H-pyrazolo[4,3-e][1,2,4]triazolo[1,5-c]pyrimidin-7-yl)-N-(2-(4-hydroxycyclohexyl)ethyl)-2-phenylpropanamide] gave an IC50 of 1.7 nM.

Turning to `COc1ccc(CNC(=O)C(c2ccccc2)n2ncc3c2nc(N)n2nc(-c4ccco4)nc32)cc1` (centres unmarked) [Example 28, 2-(5-amino-2-(furan-2-yl)-7H-pyrazolo[4,3-e][1,2,4]triazolo[1,5-c]pyrimidin-7-yl)-N-(4-methoxybenzyl)-2-phenylacetamide], the IC50 was determined as 1.6 nM. The IC50 values of the last two compounds are within 1.5-fold of each other.

For `CC(C(=O)NCC1(O)CCOCC1)(c1ccccc1)n1ncc2c1nc(N)n1nc(-c3ccco3)nc21` (centres unmarked) [Example 80, 2-(5-amino-2-(furan-2-yl)-7H-pyrazolo[4,3-e][1,2,4]triazolo[1,5-c]pyrimidin-7-yl)-N-((4-hydroxytetrahydro-2H-pyran-4-yl)methyl)-2-phenylpropanamide], half-maximal inhibition (IC50) was put at 9.4 nM.

`C[C@](C(=O)N[C@H]1COC[C@@H]1O)(c1ccccc1)n1ncc2c1nc(N)n1nc(-c3ccco3)nc21` [Example 106B, (R)-2-(5-amino-2-(furan-2-yl)-7H-pyrazolo[4,3-e][1,2,4]triazolo[1,5-c]pyrimidin-7-yl)-N-((3S,4R)-4-hydroxytetrahydrofuran-3-yl)-2-phenylpropanamide] came in with an IC50 of 41.7 nM.

`C[C@@](C(=O)NCC1(O)COC1)(c1ccccc1)n1ncc2c1nc(N)n1nc(-c3ccco3)nc21` [Example 31A] came in with a 50% inhibitory concentration (IC50) of 28 nM. This IC50 and that of the compound before are within 1.5-fold of each other.

`C[C@](C(=O)N[C@H]1CC[C@H](O)CC1)(c1ccccc1)n1ncc2c1nc(N)n1nc(-c3ccco3)nc21` [Example 52B, (R)-2-(5-amino-2-(furan-2-yl)-7H-pyrazolo[4,3-e][1,2,4]triazolo[1,5-c]pyrimidin-7-yl)-N-((trans)-4-hydroxycyclohexyl)-2-phenylpropanamide] came in with an IC50 of 5 nM.

As to `C[C@](C(=O)NC1CC[S+]([O-])CC1)(c1ccccc1)n1ncc2c1nc(N)n1nc(-c3ccco3)nc21` (single isomer, unassigned) [Example 146B-2], the 50% inhibitory concentration (IC50) came out at 43.9 nM.

`C[C@](C(=O)NC1CCSCC1)(c1ccccc1)n1ncc2c1nc(N)n1nc(-c3ccco3)nc21` [Example 145B, (R)-2-(5-amino-2-(furan-2-yl)-7H-pyrazolo[4,3-e][1,2,4]triazolo[1,5-c]pyrimidin-7-yl)-2-phenyl-N-(tetrahydro-2H-thiopyran-4-yl)propanamide]: it took 9 nM to reach half-maximal inhibition (IC50).

`CC(C(=O)N[C@H]1C[C@H](O)C1)(c1ccccc1)n1ncc2c1nc(N)n1nc(-c3ccco3)nc21` (relative stereo) [Example 102, 2-(5-amino-2-(furan-2-yl)-7H-pyrazolo[4,3-e][1,2,4]triazolo[1,5-c]pyrimidin-7-yl)-(trans)-N-(3-hydroxycyclobutyl)-2-phenylpropanamide] yielded an IC50 of 13.3 nM.

In turn, `C[C@@H](NC(=O)C(c1ccccc1)n1ncc2c1nc(N)n1nc(-c3ccco3)nc21)c1ccccc1` (stereo partly drawn) [Example 10, 2-(5-amino-2-(furan-2-yl)-7H-pyrazolo[4,3-e][1,2,4]triazolo[1,5-c]pyrimidin-7-yl)-2-phenyl-N—((R)-1-phenylethyl)acetamide] had an IC50 of 16.5 nM.

Regarding `CC(C(=O)NCC1(O)CCC1)(c1ccccc1)n1ncc2c1nc(N)n1nc(-c3ccco3)nc21` (centres unmarked) [Example 71, 2-(5-amino-2-(furan-2-yl)-7H-pyrazolo[4,3-e][1,2,4]triazolo[1,5-c]pyrimidin-7-yl)-N-((1-hydroxycyclobutyl)methyl)-2-phenylpropanamide], it took 3.8 nM to reach half-maximal inhibition (IC50).

For the compound `CC(C(=O)N[C@@H]1CC[C@@H](O)C1)(c1ccccc1)n1ncc2c1nc(N)n1nc(-c3ccco3)nc21` (stereo partly drawn) [Example 94, 2-(5-amino-2-(furan-2-yl)-7H-pyrazolo[4,3-e][1,2,4]triazolo[1,5-c]pyrimidin-7-yl)-N-((1R,3R)-3-hydroxycyclopentyl)-2-phenylpropanamide], the IC50 was determined as 11.2 nM.

Turning to `CC(C(=O)N[C@H]1CCCC[C@H]1O)(c1ccccc1)n1ncc2c1nc(N)n1nc(-c3ccco3)nc21` (stereo partly drawn) [Example 56, 2-(5-amino-2-(furan-2-yl)-7H-pyrazolo[4,3-e][1,2,4]triazolo[1,5-c]pyrimidin-7-yl)-N-((1S,2R)-2-hydroxycyclohexyl)-2-phenylpropanamide], the IC50 is 10.9 nM.

For `CC(C(=O)NCc1ccc(F)cn1)(c1ccccc1)n1ncc2c1nc(N)n1nc(-c3ccco3)nc21` (centres unmarked) [Example 117, 2-(5-amino-2-(furan-2-yl)-7H-pyrazolo[4,3-e][1,2,4]triazolo[1,5-c]pyrimidin-7-yl)-N-((5-fluoropyridin-2-yl)methyl)-2-phenylpropanamide], the IC50 turned out to be 3.4 nM.

`CCOc1ccccc1CNC(=O)C(c1ccccc1)n1ncc2c1nc(N)n1nc(-c3ccco3)nc21` (centres unmarked) [Example 6, 2-(5-amino-2-(furan-2-yl)-7H-pyrazolo[4,3-e][1,2,4]triazolo[1,5-c]pyrimidin-7-yl)-N-(2-triethoxybenzyl)-2-phenylacetamide] yielded an IC50 of 0.9 nM.

As for `CC(C(=O)N[C@H]1COC[C@@H]1O)(c1ccccc1)n1ncc2c1nc(N)n1nc(-c3ccco3)nc21` (stereo partly drawn) [Example 106, 2-(5-amino-2-(furan-2-yl)-7H-pyrazolo[4,3-e][1,2,4]triazolo[1,5-c]pyrimidin-7-yl)-N-((3S,4R)-4-hydroxytetrahydrofuran-3-yl)-2-phenylpropanamide], 50.9 nM corresponded to half-maximal inhibition (IC50).

`CC1(O)CC(NC(=O)[C@@](C)(c2ccccc2)n2ncc3c2nc(N)n2nc(-c4ccco4)nc32)C1` (stereo in doubt) [Example 105B, (R)-2-(5-amino-2-(furan-2-yl)-7H-pyrazolo[4,3-e][1,2,4]triazolo[1,5-c]pyrimidin-7-yl)-(cis)-N-(3-hydroxy-3-methylcyclobutyl)-2-phenylpropanamide] registered a 50% inhibitory concentration (IC50) of 5 nM.

As to `CC(C(=O)N[C@@H]1CNC(=O)C1)(c1ccccc1)n1ncc2c1nc(N)n1nc(-c3ccco3)nc21` (stereo partly drawn) [Example 100, 2-(5-amino-2-(furan-2-yl)-7H-pyrazolo[4,3-e][1,2,4]triazolo[1,5-c]pyrimidin-7-yl)-N—((S)-5-oxopyrrolidin-3-yl)-2-phenylpropanamide], the IC50 was 11.8 nM.

As for `CC(C(=O)N[C@H]1CC[C@H](O)C1)(c1ccccc1)n1ncc2c1nc(N)n1nc(-c3ccco3)nc21` (stereo partly drawn) [Example 95, 2-(5-amino-2-(furan-2-yl)-7H-pyrazolo[4,3-e][1,2,4]triazolo[1,5-c]pyrimidin-7-yl)-N-((1S,3S)-3-hydroxycyclopentyl)-2-phenylpropanamide], it took 9.5 nM to reach half-maximal inhibition (IC50). The IC50 values of the last two compounds are within 1.5-fold of each other.

For `CC(C(=O)N[C@H]1CC[C@@](C)(O)CC1)(c1ccccc1)n1ncc2c1nc(N)n1nc(-c3ccco3)nc21` (stereo partly drawn) [Example 33, 2-(5-amino-2-(furan-2-yl)-7H-pyrazolo[4,3-e][1,2,4]triazolo[1,5-c]pyrimidin-7-yl)-(trans)-N-(4-hydroxy-4-methylcyclohexyl)-2-phenylpropanamide], the concentration for half-maximal inhibition (IC50) was 8.4 nM.

With `Nc1nc2c(cnn2C(C(=O)NCc2ccccc2F)c2ccccc2)c2nc(-c3ccco3)nn12` (centres unmarked) [Example 7, 2-(5-amino-2-(furan-2-yl)-7H-pyrazolo[4,3-e][1,2,4]triazolo[1,5-c]pyrimidin-7-yl)-N-(2-fluorobenzyl)-2-phenylacetamide], the 50% inhibitory concentration (IC50) came to 1.5 nM.
